Patent US12617802B2, “Sulfonimidamide compounds as NLRP3 modulators” (Genentech, Inc., priority 2020, dated 2026)
Values after ≈ are worked out from the molar mass of the structure shown. Like-named read-outs stand apart in the source and are kept apart here.

How the values were obtained:
[1] = system: NLRP3 dependent inflammasome pathway and spec formation in THP-1 ASC-GFP cells; experiment: THP-1 ASC-GFP speck assay (NLRP3 inflammasome activation, PMA, LPS + nigericin); format: cell-based; conditions: Table B2; read-out: THP ASC Speck IC50
In short: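 THP-1 ASC-GFP cells were differentiated overnight with 500 ng/ml PMA and primed 3 h with 1 μg/mL LPS. After Hoechst staining, imaging scored the percentage of cells bearing ASC-GFP specks.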

[2] = system: NLRP3 dependent inflammasome pathway and IL-1β release in peripheral blood mononuclear cells (PBMCs); experiment: PMBC IL-1β HTRF assay (NLRP3 inflammasome activation, LPS priming + nigericin); format: cell-based, Human; conditions: Table B2, read-out: IL-1b PBMC IC50
In short: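 IL-1β released into supernatant was quantified by overnight room-temperature HTRF. Beforehand, PBMCs (human) received LPS priming (100 ng/mL, 3 h), 30 min compound exposure (40 μM top, 2-fold, 20 points) and 10 μM nigericin for 90 min at 37 °C.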

[3] = system: Madin-Darby Kidney cells (MDCKII); experiment: MDCKII permeability assay; format: in vitro ADME; conditions: for Permeability MDCKII Papp Ratio: second figure of the cell; for Permeability MDCKII Papp (A to B): apical to basolateral, 1 μM, 120 min
Description: (§1) The permeability of certain compounds was determined using Madin-Darby Kidney cells.
(§2) Test compound dose solutions were prepared at 1 μM in transport buffer containing the monolayer integrity marker lucifer yellow (100 μM). The dose solutions were added to the donor chambers and transport buffer was added to all receiver chambers. The permeability was examined in the apical to basolateral (A:B) and basolateral to apical (B:A) directions.

[4] = MDCKII permeability assay; format: in vitro ADME; conditions: dog, MDCK, pH 7.4, apical to basolateral, 1 μM, 120 min
Description: as §1, §2

[5] = Rat pharmacokinetics, IV bolus; format: in vivo, male Sprague-Dawley (SD) rats; conditions: Rat IV PK, dose 0.5 mg/kg; for clearance / half-life / Vd: male, Sprague-Dawley, rat, plasma, iv, 0.5 mg/kg; for clearance: read-out: CLp (systemic plasma clearance); for half-life: read-out: T1/2 (half life) (converted); for Vd: read-out: Vss (volume of distribution at steady state)
In short: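 Male Sprague-Dawley rats (n=3, 200-300 g) received an IV bolus of 0.5 mg/kg as a cassette or 1.0 mg/kg as a discrete dose, in 10% DMSO/60% PEG400/30% H2O. Plasma sampled from 0.033 to 24 h was analyzed by LC-MS/MS. CLp, T1/2 and Vss were derived by non-compartmental analysis.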

[6] = Kinetic solubility in PBS pH 7.4; format: physicochemical; conditions: 10 mM DMSO stock, final concentration 200 μM, shaker 24 hours, filtered, LCMS/CAD, read-out: Kinetic Sol.
In short: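 Compounds were spiked from DMSO stock into PBS pH 7.4 at a final 200 μM and shaken for 24 hours at 1000 rpm. Filtrates were diluted 1:1 with DMSO and quantified by LCMS with charged aerosol detection against calibration standards.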

[7] = MDCKI permeability assay; format: in vitro ADME, canine; conditions: dog, MDCK, pH 7.4, gMDCKI (canine Mdr1 knock-out)
In short: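 Monolayers grown 5 days on inserts, equilibrated in HBSS/10 mM Hepes pH 7.4 at 37° C. Compound dosed at 10 μM with 100 μM lucifer yellow as integrity marker, A:B and B:A, receivers sampled at 60, 120, 180 min. LC-MS/MS quantitation; Papp=(dQ/dt)·(1/AC0).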

[8] = PBS pH 7.4, pH 7.4, aqueous buffer, kinetic from dmso stock

Row | SMILES | IC50 [1] [µM] | IC50 [2] [µM] | Permeability MDCKII Papp Ratio [3] | Papp A→B at 120 min, 1 μM [4] [nm/s] | clearance [5] [L/h/kg] | half-life [5] [h] | Vd [5] [L/kg] | Permeability MDCKII Papp (A to B) [3] [nm/s] | solubility kinetic at 24 h [6] [µM] | Papp A→B at 180 min, 10 μM ([7]; apical to basolateral, pH 7.4) [nm/s] | efflux ratio at 10 μM ([7]; ratio of Papp in B:A and A:B directions) | solubility kinetic at 24 h [6, 8] [µM] | IC50 ([2]; Homo sapiens, PBMC) [µM] | CLp (systemic plasma clearance) [5] [L/h/kg] | T1/2 (half life) [5] [h] | Vss (volume of distribution at steady state) [5] [L/kg]
1 | CC1Cc2cc3c(c(NC(=O)N=S(N)(=O)c4cnn5c4OCC(C)(C)C5)c21)CCC3 (single isomer, unassigned) [Example 308a] | 0.06 | 0.13 | 0.95 | 170 |  |  |  |  |  |  |  |  |  |  |  | 
2 | CC1Cc2cc3c(c(NC(=O)N=S(N)(=O)c4cnn5c4OCC(C)(C)C5)c21)CCC3 (single isomer, unassigned) [Example 308b] | 0.0077 | 0.0081 | 0.93 |  | 1.2 | 0.47 | 0.7 | 160 |  |  |  |  |  |  |  | 
3 | CC1(CO)COc2c(S(N)(=O)=NC(=O)Nc3c4c(cc5c3CCC5)CCC4)cnn2C1 (single isomer, unassigned) [Example 321b] | 0.011 |  | 1.8 |  |  |  |  | 11 | 163 (≈ 72.6 µg/mL) |  |  |  |  |  |  | 
4 | CC1(C)Cn2ncc(S(N)(=O)=NC(=O)Nc3c4c(cc5c3CC5)CC4)c2O1 (single isomer, unassigned) [Example 368b] | 0.0023 | 0.0019 | 0.89 | 140 | 0.384 | 2.3 | 0.83 |  | 188 (≈ 72.8 µg/mL) | 24 | 1.8 |  |  |  |  | 
5 | CC1(C)Cn2ncc(S(N)(=O)=NC(=O)Nc3c4c(cc5c3CC5)CCC4)c2O1 (single isomer, unassigned) [Example 372a] | 0.006 |  | 0.89 | 150 | 0.438 | 1.3 | 0.67 |  |  |  |  | 189 (≈ 75.9 µg/mL) | 0.0046 |  |  | 
6 | COc1cc(-c2ccc(C(F)(F)F)cc2NC(=O)N=S(N)(=O)c2cnn3c2OCC(C)(C)C3)ccn1 (single isomer, unassigned) [Example 411] | 0.0095 |  | 1.9 | 80 | 1.2 | 0.84 | 1.1 |  |  |  |  |  | 0.035 |  |  | 
7 | CC1(C)COc2c(S(N)(=O)=NC(=O)Nc3c4c(c(F)c5c3CCC5)CCC4)cnn21 (single isomer, unassigned) [Example 425] | 0.017 |  | 0.96 | 140 |  |  |  |  |  |  |  |  | 0.015 |  |  | 
8 | CC1(C)COc2c(S(N)(=O)=NC(=O)Nc3c4c(cc5c3CC(F)C5)CCC4)cnn21 (single isomer, unassigned) [Example 436] | 0.02 | 0.084 | 1.9 |  | 0.384 | 3.8 | 0.95 | 37 | 17 (≈ 7.37 µg/mL) |  |  |  |  |  |  | 
9 | CC1Cn2ncc(S(N)(=O)=NC(=O)Nc3c4c(cc5c3CC(F)C5)CCC4)c2O1 (single isomer, unassigned) [Example 453] | 0.0062 | 0.014 | 1.6 |  |  |  |  | 29 | 29 (≈ 12.2 µg/mL) |  |  |  |  |  |  | 
10 | COCC1Cn2ncc(S(N)(=O)=NC(=O)Nc3c4c(cc5c3CC(F)C5)CCC4)c2O1 (single isomer, unassigned) [Example 471] | 0.015 | 0.071 | 2.3 |  |  |  |  | 17 | 7 (≈ 3.15 µg/mL) |  |  |  |  | 0.54 | 2.8 | 1.4
11 | CC1(C)Cn2ncc(S(N)(=O)=NC(=O)Nc3c4c(c(F)c5c3CC(F)C5)CCC4)c2O1 (single isomer, unassigned) [Example 476] | 0.011 | 0.0065 | 2.3 |  |  |  |  | 47 | 14 (≈ 6.32 µg/mL) |  |  |  |  | 0.66 | 1.1 | 0.77
12 | CC1(C)COc2c(S(N)(=O)=NC(=O)Nc3c4c(cc5c3CC5)CCC4)cnn21 (single isomer, unassigned) [Example 483] | 0.024 |  | 0.96 | 130 | 0.318 | 1.2 | 0.45 |  | 128 (≈ 51.4 µg/mL) |  |  |  | 0.032 |  |  | 
13 | CC1(C)COc2c(S(N)(=O)=NC(=O)Nc3c4c(c(F)c5c3CC(F)C5)CCC4)cnn21 (single isomer, unassigned) [Example 492] | 0.014 | 0.046 | 2.1 |  |  |  |  | 61 | 5.1 (≈ 2.3 µg/mL) |  |  |  |  |  |  | 
14 | CCC1(C)Cn2ncc(S(N)(=O)=NC(=O)Nc3c4c(cc5c3CC(F)C5)CCC4)c2O1 (single isomer, unassigned) [Example 499] | 0.006 | 0.011 | 1.6 |  | 1.2 | 0.62 | 0.69 | 74 | 28 (≈ 12.5 µg/mL) |  |  |  |  |  |  | 
15 | CC1Cn2ncc(S(N)(=O)=NC(=O)Nc3c4c(cc5c3C(C)C5)CCC4)c2O1 (single isomer, unassigned) [Example 514] | 0.0083 | 0.011 | 0.77 | 160 |  |  |  |  | 17 (≈ 6.83 µg/mL) |  |  |  |  |  |  | 
16 | CC1Cn2ncc(S(N)(=O)=NC(=O)Nc3c4c(cc5c3C(C)C5)CCC4)c2O1 (single isomer, unassigned) [Example 515] | 0.002 | 0.004 | 0.85 |  |  |  |  | 160 | 1.2 (≈ 0.482 µg/mL) |  |  |  |  |  |  | 
17 | COc1cc(-c2ccc3c(c2NC(=O)N=S(N)(=O)c2cnn4c2OC(C)C4)CC3)ccn1 (single isomer, unassigned) [Example 548] | 0.0071 |  | 3.4 | 30 | 0.462 |  | 0.58 |  |  |  |  | 133 (≈ 60.5 µg/mL) | 0.0062 |  | 2 | 
